# Tests used:
# [1] = system: B cells from CIA mice; assay: RT-PCR cytokine gene expression in cells purified from CIA mice; assay type: cell-based; conditions: 33 nM and 100 nM, 45 minutes
# Method: IL-10 (FIG. 20 A) and TGFβ1 (FIG. 20 B) levels were quantified. Samples were normalized against Ywhaz1 and Hprt1 housekeeping genes. […] Samples were examined in triplicates and the error bars represent the SEM. […] After 30 minutes, cells were washed, lysed and mRNA was isolated with Trizol (Invitrogen). RT-PCR was performed on mRNA and samples were normalized against housekeeping genes, Ywhaz1 and Hprt1. Data represent the average fold change in IL-10 gene expression compared to media alone. Error bars represent SEM of triplicates.
# RT-PCR was performed and TGFβ1, IL-10 and IL-6 mRNA levels were quantified. Sample cDNA levels were normalized against housekeeping genes Ywhaz1 and Hprt1. Data represent the average fold change in IL-10 gene expression compared to media alone. Error bars represent SEM of triplicates.
# RT-PCR was performed and TGFβ1 and IL-10 levels were quantified and samples were normalized against Ywhaz1 and Hprt1. Data represent the average fold gene induction of triplicates and error bars represent SEM.
# [2] = target: T1, CD40 (Mus musculus, UniProt P27512); assay: CD40-mediated B cell proliferation (anti-CD40, CD40L); assay type: cell-based, mice; conditions: pre-treatment of B cells
# T1 construct: Peritoneal and bone marrow-derived macrophages were isolated from CIA mice; endogenous in cells; host or cells: peritoneal and bone marrow-derived macrophages from CIA mice
# T1 sequence (P27512 20-289): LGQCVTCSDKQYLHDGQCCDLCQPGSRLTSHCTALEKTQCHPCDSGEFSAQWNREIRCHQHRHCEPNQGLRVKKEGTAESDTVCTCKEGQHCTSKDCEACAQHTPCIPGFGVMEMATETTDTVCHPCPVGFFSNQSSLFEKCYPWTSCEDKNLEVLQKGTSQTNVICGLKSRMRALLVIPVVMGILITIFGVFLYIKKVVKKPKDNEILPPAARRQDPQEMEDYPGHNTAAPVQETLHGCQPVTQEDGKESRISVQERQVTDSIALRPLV
# Method: (§1) Activity was monitored by ^3H-thymidine incorporation as a read-out for proliferation. […] Cell type(s) in the splenocyte population responsive to therapeutic concentrations of cardiac glycoside were determined by identifying the population of cells that responded to a dose-dependent decrease in activity in the presence of stimulant, defined as ligand(s) binding to cognate receptor(s). Activity was analyzed by: ^3H-thymidine or BrdU incorporation to monitor proliferation or by ELISA to monitor cytokine production. Splenic T lymphocytes were isolated by negative selection (MACS, Miltinyi Biotec) and are stimulated with PMA, ConA or through the TCR with anti-CD3/anti-CD28 Dynabeads (Invitrogen) and collagen II (all non-TNFR receptors/pathways). […] Peritoneal and bone marrow-derived macrophages were isolated from CIA mice in the presence of M-CSF growth factor and were stimulated with TNF and CD40 ligand (CD40L). […] Splenic B lymphocytes were isolated by negative selection (MACS, Miltinyi Biotec) and were stimulated with BAFF (BLyS), CD40L or through the BCR with anti-IgM u-chain specific antibodies.
# [3] = system: IL-10 cytokine secretion from B cells; assay: IL-10 secretion (ELISA) by splenic B cells from treated MRL-Ipr mice; assay type: cell-based
# Method: FIG. 19. […] MACS-purified B cells from vehicle or digitoxin-treated 23 week-old female MRL-Ipr mice were harvested from the spleen. 2×10^5 B cells were incubated either media, mifespristone (0.8 nM), Jak inhibitor I (15 nM), STAT3 inhibitor VI (500 μM) or dasatinib (1.1 nM) for 60 minutes, washed and incubated for 48 hr at 37° C. Cell supernatant was collected and ELISAs were used to quantify the amount of secreted IL-10 cytokine in each condition. Data represent the average of triplicate conditions and error bars represent the SEM. Statistical significance was performed using the student t-test.
# [4] = system: MRL-Ipr splenic B cells; assay: ANA production by MRL-Ipr splenic B cells in vitro; assay type: cell-based, mice; conditions: 2×10^5 vehicle-treated MRL-Ipr splenic B cells, 33 nM
# [5] = system: TNFR; assay type: cell-based, mice; conditions: pre-treatment with 3.3 or 33 nM
# Method: as §1
# [6] = system: T cell receptor; assay type: cell-based, mice; conditions: non-TNFR family member; therapeutic concentrations
# Method: as §1
# [7] = target: T1, CD40; assay type: cell-based, mice; conditions: pre-treatment with 3.3 or 33 nM
# Method: as §1
# [8] = system: BAFFR; assay: BAFF-mediated stimulation of B cells; assay type: cell-based, mice; conditions: 33 nM pre-treatment, BAFF 0.5 or 5 μg/ml
# Method: as §1
# [9] = system: SLE-like disease; assay: MRL-Ipr mouse model of systemic lupus erythematosus; assay type: in vivo, MRL-Ipr female mice
# Method: FIG. 16. […] SLE-like disease progression in MRL-Ipr female mice (Jackson Laboratories) was evaluated. Briefly, 10 mice per treatment arm were followed for the development of SLE-like disease over the course of 16 weeks. […] Animals were scored on a weekly basis for proteinuria and survived until 23 weeks of age. Data represent the average proteinuria concentration in urine collected from each mouse using Uristix (Bayer Corp.). Error bars represent SEM. The Mann-Whitney test was used to determine significance between vehicle and digitoxin groups. Asterisks represent significant P values <0.01.
# FIG. 17. […] At endpoint, 23 week old female MRL-Ipr mice were sacrificed and kidneys were fixed, embedded in paraffin, sectioned longitudinally and stained for glomeruli with periodic acid-Schiff stain (Histotec). (A) Depiction of a section taken from a representative vehicle treated kidney. (B) Depiction of a section taken from a representative digitoxin treated kidney.
# FIG. 18. […] Endpoint serum titers were taken for each mouse and the concentration of anti-double-stranded DNA (ANA) antibodies were assessed (A). […] ANA antibodies were measured using ELISA (Alpha Diagnostic International). Error bars represent the SEM. The student t-test was used to determine significance. Asterisks represent significant P values.
# Cardiac glycosides are used for the treatment of systemic lupus erythematosus and other forms of multi-system inflammatory diseases. […] Studies are conducted to determine the ability of cardiac glycosides to treat SLE. The effectiveness of cardiac glycosides at treating SLE disease progression in MRL-Ipr female mice (Jackson Laboratories) was evaluated. Briefly, 10 mice per experimental arm were followed for the development of SLE disease. […] Animals were scored on a weekly basis for proteinuria and survived until 23 weeks of age (FIG. 16). Weekly proteinuria monitoring was performed using Uristix (Bayer Corp.). […] Endpoint serum titres of double-stranded DNA (ANA) antibodies for each mouse were assessed (FIG. 18 A). […] ANA antibodies were measured using ELISA (Alpha Diagnostic International). […]
smiles,measurement,setting,value
"C[C@H]1O[C@@H](O[C@H]2[C@@H](O)C[C@H](O[C@H]3[C@@H](O)C[C@H](O[C@H]4CC[C@@]5(C)[C@H](CC[C@@H]6[C@@H]5CC[C@]5(C)[C@@H](C7=CC(=O)OC7)CC[C@]65O)C4)O[C@@H]3C)O[C@@H]2C)C[C@H](O)[C@@H]1O [Digitoxin, digitoxin]",IL-6 mRNA expression in B cells,[1],inhibit IL-6 expression
same,IL-10 mRNA expression in B cells,[1],induce
same,TGFβ1 mRNA expression in B cells,[1],induce
same,CD40L-mediated B cell proliferation,[2],inhibited CD40L-mediated proliferation
same,anti-CD40 mediated B cell proliferation,[2],prevented anti-CD40 mediated B cell proliferation
same,secreted IL-10 cytokine,"[3]; 2×10^5 B cells from vehicle or digitoxin-treated 23 week-old mice, 48 hr, ELISA",induces IL-10 cytokine secretion
same,mechanism dependence of IL-10 secretion (inhibitor pre-incubation),"[3]; mifespristone 0.8 nM, Jak inhibitor I 15 nM, STAT3 inhibitor VI 500 μM or dasatinib 1.1 nM for 60 minutes","dependent on steroid receptors, Jak activity, and STAT3 activity, but not BCR-ABL or Src-like Family Kinase activity"
same,ANA production in vitro at 72 hours,[4],blockade of autoantibody production
same,TNF-mediated activation of macrophage through TNFR,[5],inhibits
same,proliferation of T cells in response to stimulation through the T cell receptor,[6],did not alter proliferation
same,CD40L-mediated activation of macrophage through CD40,[7],inhibits
same,BAFF-mediated stimulation of B cells through BAFFR,[8],inhibited BAFF-mediated stimulation
same,disease severity (average proteinuria) in experimental lupus,"[9]; 0.6 mg/kg every-4-days sublingual from week 8, 10 mice per arm, Mann-Whitney P<0.01",decrease disease severity
same,kidney pathology (periodic acid-Schiff stained glomeruli),"[9]; 23 week old mice at endpoint, 0.6 mg/kg every-4-days sublingual",decrease kidney pathology
same,endpoint serum anti-double-stranded DNA (ANA) antibodies,"[9]; endpoint serum, ELISA",inhibit autoantibody production

# Source: US20140011755A1, “Cardiac Glycosides for Treating Autoimmune Disease” (Department of Veterans Affairs, priority 2010, published 2014)
